Laboratory results: ChEMBL document CHEMBL1201862, “PubChem BioAssay data set” (2004)
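48-hour exposure; five concentrations; linearly interpolated endpoints. Here, GI50 denotes the concentration required for 50% inhibition of growth.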 The source made the active and inactive calls. Cut-off read from the data, not from the text of the source: active = GI50 up to about 1.1 µM and inactive = higher.

What was measured:
Assay in all cases: NCI tumour cell line growth inhibition, 48 h
A498 = system: A498
ACHN = system: ACHN
CAKI-1 = system: CAKI-1
HL-60 = system: HL-60
Malme-3M = system: Malme-3M
NCI-H522 = system: NCI-H522
RPMI-8226 = system: RPMI-8226
SF-295 = system: SF-295
SF-539 = system: SF-539
SK-MEL-5 = system: SK-MEL-5
SN12C = system: SN12C
SW-620 = system: SW-620
786-0 = system: 786-0
A549 = system: A549
DU-145 = system: DU-145
MDA-MB-435 = system: MDA-MB-435
NCI/ADR-RES = system: NCI/ADR-RES
OVCAR-4 = system: OVCAR-4
PC-3 = system: PC-3
SK-MEL-2 = system: SK-MEL-2

Row | Structure (SMILES) | GI50 (A498) | GI50 (ACHN) | GI50 (CAKI-1) | GI50 (HL-60) | GI50 (Malme-3M) | GI50 (NCI-H522) | GI50 (RPMI-8226) | GI50 (SF-295) | GI50 (SF-539) | GI50 (SK-MEL-5) | GI50 (SN12C) | GI50 (SW-620) | GI50 (786-0) | GI50 (A549) | GI50 (DU-145) | GI50 (MDA-MB-435) | GI50 (NCI/ADR-RES) | GI50 (OVCAR-4) | GI50 (PC-3) | GI50 (SK-MEL-2)
1 | NC(=S)N/N=C1\CC(c2ccccc2)Nc2ccccc21 (centres undefined) | 18.5 µM (inactive) | 46.3 µM (inactive) | 66.7 µM (inactive) | 11 µM (inactive) | 27.6 µM (inactive) | 25.2 µM (inactive) | 27.1 µM (inactive) | 60.3 µM (inactive) | 41.7 µM (inactive) | 19.5 µM (inactive) | 48.1 µM (inactive) | 30.7 µM (inactive) |  |  |  |  |  |  |  | 
2 | Cc1cc(O)c(C(c2cccnc2)c2c(O)cc(C)[nH]c2=O)c(=O)[nH]1 |  | > 100 µM (inactive) | > 100 µM (inactive) | > 100 µM (inactive) | > 100 µM (inactive) | > 100 µM (inactive) | > 100 µM (inactive) | > 100 µM (inactive) |  | > 100 µM (inactive) | > 100 µM (inactive) |  | > 100 µM (inactive) | > 100 µM (inactive) | > 100 µM (inactive) | > 100 µM (inactive) | > 100 µM (inactive) | > 100 µM (inactive) | > 100 µM (inactive) | 
3 | CCOP(=Nc1ccc(N(C)C)cc1)(OCC)OCC | > 100 µM (inactive) | > 100 µM (inactive) | > 100 µM (inactive) |  | > 100 µM (inactive) | > 100 µM (inactive) | > 100 µM (inactive) | > 100 µM (inactive) |  | > 100 µM (inactive) |  |  |  | > 100 µM (inactive) | > 100 µM (inactive) | > 100 µM (inactive) | > 100 µM (inactive) | > 100 µM (inactive) | > 100 µM (inactive) | > 100 µM (inactive)
4 | COc1c(Cl)cc(Cl)cc1S(=O)O | > 100 µM (inactive) | > 100 µM (inactive) |  | > 100 µM (inactive) | > 100 µM (inactive) | > 100 µM (inactive) |  |  | > 100 µM (inactive) |  | > 100 µM (inactive) |  |  |  |  |  |  | > 100 µM (inactive) |  | > 100 µM (inactive)
5 | C=C1CC(OC)(C(O)C(=O)N[C@H]2OCO[C@H]3C2O[C@H](C[C@@H](COC)OC)C(C)(C)C3OC)O[C@H](C)[C@@H]1C (some centres undefined) | < 0.00482 µM (active) |  | < 0.00482 µM (active) | < 0.00482 µM (active) |  | < 0.00482 µM (active) | < 0.00482 µM (active) | < 0.00482 µM (active) | < 0.00482 µM (active) | < 0.00482 µM (active) | < 0.00482 µM (active) | < 0.00482 µM (active) |  | < 0.00482 µM (active) |  |  | < 0.00482 µM (active) | < 0.00482 µM (active) |  | 
6 | C=C1C(=O)C[C@@]23CCC[C@@]12CC(OCOC)C3 (some centres undefined) | 4.69 µM (inactive) |  | 2.3 µM (inactive) | 2.05 µM (inactive) | 2.84 µM (inactive) | 0.387 µM (active) | 2.55 µM (inactive) | 5.3 µM (inactive) | 3.24 µM (inactive) | 3.33 µM (inactive) | 1.93 µM (inactive) | 2.07 µM (inactive) |  | 13.5 µM (inactive) |  |  | 2.11 µM (inactive) | 2.19 µM (inactive) |  | 4.16 µM (inactive)
7 | Cc1cccc(/C=C2\CCCc3ccccc3C2=O)c1 |  | 26.5 µM (inactive) | 30.4 µM (inactive) | 12.1 µM (inactive) | 18.1 µM (inactive) | 12.7 µM (inactive) | 8.2 µM (inactive) | 19.5 µM (inactive) | 18.7 µM (inactive) |  | 17.9 µM (inactive) | 16.8 µM (inactive) | 32.1 µM (inactive) | 24.2 µM (inactive) | 28.6 µM (inactive) | 17 µM (inactive) | 22.4 µM (inactive) | 19.1 µM (inactive) | 27.2 µM (inactive) | 16.7 µM (inactive)
8 | NC(=O)c1ncn2c1NC(=O)CC2 | > 100 µM (inactive) |  | > 100 µM (inactive) | > 100 µM (inactive) | > 100 µM (inactive) | > 100 µM (inactive) | > 100 µM (inactive) | > 100 µM (inactive) | > 100 µM (inactive) | > 100 µM (inactive) | > 100 µM (inactive) | > 100 µM (inactive) |  | > 100 µM (inactive) |  |  | > 100 µM (inactive) | > 100 µM (inactive) |  | > 100 µM (inactive)
9 | NC(=O)c1csc(C2O[C@@H](COP(=O)(O)OP(=O)(O)OC[C@H]3OC(n4cnc5c(N)ncnc54)[C@H](O)[C@@H]3O)[C@H](O)[C@@H]2O)n1 (some centres undefined) | > 100 µM (inactive) | > 100 µM (inactive) | 97.9 µM (inactive) | 67.3 µM (inactive) | > 100 µM (inactive) | 52.8 µM (inactive) | 65.2 µM (inactive) | 30 µM (inactive) | 52 µM (inactive) | > 100 µM (inactive) | > 100 µM (inactive) | > 100 µM (inactive) | 57.1 µM (inactive) | > 100 µM (inactive) |  |  |  | 73.3 µM (inactive) |  | > 100 µM (inactive)
